From patent publication US9546172B2, “Pyrazolo[3,4-d]pyrimidine and pyrazolo[2,3-d]pyrimidine compounds as kinase inhibitors” (Pharmacyclics LLC, priority 2011, dated 2017)
pIC50: −log10 of the molar value.

target: T1, Btk (Homo sapiens, UniProt Q06187); experiment: Btk in vitro inhibitory activity (one of Methods A, B, C); type: biochemical; conditions: determined in one of three in vitro assays (Examples 125-127)
T1 construct: purified from insect cells as a full-length construct containing a N-terminal 6×-His tag; 6xHis (N); host or cells: insect cells (baculovirus Sf21 in Method B)
Procedure: The Btk IC50s of compounds disclosed herein was determined in one of the three in vitro assays described in Examples 125-127.
Btk kinase activity was determined using a time-resolved fluorescence resonance energy transfer (TR-FRET) methodology. Measurements were performed in a reaction volume of 50 μL using 96-well assay plates. […] The reaction was quenched by the addition of 1.2 equivalents of EDTA (relative to divalent cation) in 25 μL of 1× Lance buffer (Perkin-Elmer). Streptavidin-APC (Perkin-Elmer) and Eu-labeled p-Tyr100 antibody (Perkin-Elmer) in 1× Lance buffer were added in a 25 μL volume to give final concentrations of 100 nM and 2.5 nM, respectively, and the mixture was allowed to incubate for one hour. The TR-FRET signal was measured on a multimode plate reader with an excitation wavelength (λEx) of 330 nm and detection wavelengths (λEm) of 615 and 665 nm. Activity was determined by the ratio of the fluorescence at 665 nm to that at 615 nm. For each compound, enzyme activity was measured at various concentrations of compound. Negative control reactions were performed in the absence of inhibitor in replicates of six, and two no-enzyme controls were used to determine baseline fluorescence levels Inhibition constants, Ki(app), were obtained using the program BatchKi (Kuzmic et al. (2000), Anal. Biochem. 286:45-50). IC50s were obtained according to the equation: IC50={Ki(app)/(1+[ATP]/Km^ATP)}+[E]total/2; For all kinases, [ATP]=Km^ATP, [Btk]total=0.5 nM and [Lck]total=6 nM.
Kinase activity is measured in vitro using electrophoretic mobility shift assay. The kinase reactions are assembled in a total volume of 25 μL in 384 well plates. […] The reaction is incubated for one hour and is quenched by the addition of 45 μL of termination buffer (100 mM HEPES, pH7.5, 0.01% Triton X-100, 30 mM EDTA). The terminated reactions are analyzed using 12 channel LabChip® 3000 microfluidic detection instrument (Caliper Life Sciences). The enzymatic phosphorylation of the peptide results in a change in net charge, enabling electrophoretic separation of product from substrate peptide. As substrate and product peptides are separated, two peaks of fluorescence are observed. Change in the relative fluorescence intensity of the substrate and product peaks is the parameter measured, reflecting enzyme activity. In the presence of an inhibitor, the ratio between product and substrate is altered: the signal of the product decreases, while the signal of the substrate increases.
Activity in each sample is determined as the product to sum ratio (PSR): P/(S+P), where P is the peak height of the product peptide and S is the peak height of the substrate peptide. For each compound, enzyme activity is measured at various concentrations (12 concentrations of compound spaced by 3× dilution intervals). Negative control samples (0%-inhibition in the absence of inhibitor) and positive control samples (100%-inhibition, in the presence of 20 mM EDTA) are assembled in replicates of four and are used to calculate %-inhibition values for each inhibitor at each concentration. Percent inhibition (Pinh) is determined using following equation: Pinh=(PSR0%−PSRinh)/(PSR0%−PSR100%)*100, where PSRinh is the product sum ratio in the presence of inhibitor, PSR0% is the average product sum ration in the absence of inhibitor and PSR100% is the average product sum ratio in 100%-inhibition control samples;
The IC50 values of inhibitors are determined by 4 parameter sigmoidal dose-response model fitting of the inhibition curves (Pinh versus inhibitor concentration) using XLfit 4 software.
Human Btk kinase (Genbank accession # NP_000052) was purified from insect cells as a full-length construct containing a N-terminal 6×-His tag. Btk kinase activity was determined using a radiometric filter binding assay. Measurements are performed in a low reaction volume 384-well assay plates. […]

T1 sequence (Q06187 whole entry): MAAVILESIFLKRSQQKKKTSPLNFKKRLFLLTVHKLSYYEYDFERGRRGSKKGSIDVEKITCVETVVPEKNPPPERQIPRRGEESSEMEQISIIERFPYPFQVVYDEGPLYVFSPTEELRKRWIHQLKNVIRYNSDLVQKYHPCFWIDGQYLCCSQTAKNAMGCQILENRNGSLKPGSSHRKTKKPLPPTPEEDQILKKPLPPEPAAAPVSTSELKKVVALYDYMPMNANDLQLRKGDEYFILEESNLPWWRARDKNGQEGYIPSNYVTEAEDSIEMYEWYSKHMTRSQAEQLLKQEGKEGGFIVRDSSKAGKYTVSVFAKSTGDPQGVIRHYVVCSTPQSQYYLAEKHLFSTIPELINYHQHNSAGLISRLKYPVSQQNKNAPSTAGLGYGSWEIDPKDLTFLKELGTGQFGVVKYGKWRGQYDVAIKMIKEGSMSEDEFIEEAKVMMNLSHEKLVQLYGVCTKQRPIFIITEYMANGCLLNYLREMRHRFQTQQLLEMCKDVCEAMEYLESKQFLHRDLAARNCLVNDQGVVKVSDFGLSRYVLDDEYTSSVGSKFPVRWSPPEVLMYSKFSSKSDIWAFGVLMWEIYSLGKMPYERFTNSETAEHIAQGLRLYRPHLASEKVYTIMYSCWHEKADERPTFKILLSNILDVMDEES

pIC50, > 7.00:
COc1cc(-c2nn(-c3cccc(N(C)C(=O)/C=C/CN(C)C)n3)c3ncnc(N)c23)ccc1C [Example 30]
CN(C)C/C=C/C(=O)N(C)c1cccc(-n2nc(-c3ccc(Cl)cc3)c3c(N)ncnc32)n1 [Example 31]
CN(C(=O)/C=C/CN(C)C1CC1)c1ccc(-n2nc(-c3ccc(Cl)cc3)c3c(N)ncnc32)cc1 [Example 32]
CCN(C/C=C/C(=O)N(C)c1ccc(-n2nc(-c3ccc(Cl)cc3)c3c(N)ncnc32)cc1)C1CC1 [Example 33]
CN(C(=O)/C=C/CN(C)C1CCC1)c1ccc(-n2nc(-c3ccc(Cl)cc3)c3c(N)ncnc32)cc1 [Example 34]
COc1cc(-c2nn(-c3cccc(NC(=O)/C=C/CN(C)C)c3)c3ncnc(N)c23)ccc1C [Example 35]
C=CC(=O)N1CC[C@@H](n2nc(-c3ccc(Cl)cc3)c3c(N)ncnc32)C1 [Example 36]
C=CC(=O)N(C)c1cccc(-n2nc(-c3ccc(C)c(OC)c3)c3c(N)ncnc32)c1 [Example 37]
COc1cc(-c2nn(-c3cccc(N(C)C(=O)/C=C/CN(C)C)c3)c3ncnc(N)c23)ccc1C [Example 38]
COc1cc(-c2nn(-c3ccc(N(C)C(=O)/C=C/CN(C)C4CCC4)cc3)c3ncnc(N)c23)ccc1C [Example 40]
COCCOc1ccc(-n2nc(-c3ccc(C)c(OC)c3)c3c(N)ncnc32)cc1NC(=O)/C=C/CN(C)C [Example 41]
COc1cc(-c2nn(-c3cccc(N(C)C(=O)/C=C/CN4CCOCC4)c3)c3ncnc(N)c23)ccc1C [Example 44]
COc1cc(-c2nn([C@@H]3CCCN(C(=O)/C=C/CN(C)C)C3)c3ncnc(N)c23)ccc1C [Example 45]
CN(C)C/C=C/C(=O)N1CCC[C@@H](n2nc(-c3ccc(Cl)cc3)c3c(N)ncnc32)C1 [Example 46]
CN(C)C/C=C/C(=O)N1CCC(n2nc(-c3ccc(Cl)cc3)c3c(N)ncnc32)CC1 [Example 47]
COc1cc(-c2nn(CC3CCN(C(=O)/C=C/CN(C)C)CC3)c3ncnc(N)c23)ccc1C [Example 48]
COc1cc(-c2nn(C[C@@H]3CCCN3C(=O)/C=C/CN(C)C)c3ncnc(N)c23)ccc1C [Example 49]
COc1cc(-c2nn(C[C@H]3CCCN3C(=O)/C=C/CN(C)C)c3ncnc(N)c23)ccc1C [Example 50]
CN(C)C/C=C/C(=O)N(C)c1cc(-n2nc(-c3ccc(Cl)cc3)c3c(N)ncnc32)ccc1F [Example 51]
COc1cc(-c2nn(-c3ccc(N(C)C(=O)/C=C/CN(C)C)c(Cl)c3)c3ncnc(N)c23)ccc1C [Example 52]
COc1cc(-c2nn(C3CCN(C(=O)/C=C/CN(C)C)CC3)c3ncnc(N)c23)ccc1C [Example 53]
COc1cc(-c2nn([C@@H]3CCN(C(=O)/C=C/CN(C)C)C3)c3ncnc(N)c23)c(F)cc1C [Example 54]
COc1cc(-c2nn(-c3cccc(N(C)C(=O)/C=C/CN(C)C)c3)c3ncnc(N)c23)c(F)cc1C [Example 55]
COc1cc(-c2nn(C3CCN(C(=O)/C=C/CN(C)C4CC4)CC3)c3ncnc(N)c23)ccc1C [Example 57]
COc1cc(-c2nn([C@H]3CC[C@@H](NC(=O)/C=C/CN(C)C4CC4)CC3)c3ncnc(N)c23)ccc1C [Example 59]
COc1cc(-c2nn([C@@H]3CCN(C(=O)/C=C/CN(C)C4CC4)C3)c3ncnc(N)c23)ccc1C [Example 60]
CN(C/C=C/C(=O)N1CC[C@@H](n2nc(-c3ccc(Cl)cc3)c3c(N)ncnc32)C1)C1CC1 [Example 61]
COc1cc(-c2nn(-c3ccc(N(C)C(=O)/C=C/CN(C)C)c(F)c3)c3ncnc(N)c23)ccc1C [Example 62]
COc1cc(-c2nn(-c3ccc(F)c(N(C)C(=O)/C=C/CN(C)C)c3)c3ncnc(N)c23)ccc1C [Example 63]
COc1cc(-c2nn(C3CN(C(=O)/C=C/CN(C)C)C3)c3ncnc(N)c23)ccc1C [Example 64]
CN(C)C/C=C/C(=O)N1CC(n2nc(-c3ccc(Cl)cc3)c3c(N)ncnc32)C1 [Example 65]
CN(C/C=C/C(=O)N1CC(n2nc(-c3ccc(Cl)cc3)c3c(N)ncnc32)C1)C1CC1 [Example 66]
COc1cc(-c2nn(C3CN(C(=O)/C=C/CN(C)C4CC4)C3)c3ncnc(N)c23)ccc1C [Example 67]
COc1cc(-c2nn(-c3ccc(N(C)C(=O)/C=C/CN(C)C4CC4)c(F)c3)c3ncnc(N)c23)ccc1C [Example 68]
CN(C(=O)/C=C/CN(C)C1CC1)c1cc(-n2nc(-c3ccc(Cl)cc3)c3c(N)ncnc32)ccc1F [Example 69]
COCCOc1ccc(-n2nc(-c3ccc(C)c(OC)c3)c3c(N)ncnc32)cc1N(C)C(=O)/C=C/CN(C)C [Example 70]
COc1cc(-c2nn(C[C@H]3CCN(C(=O)/C=C/CN(C)C)C3)c3ncnc(N)c23)ccc1C [Example 72]
COc1cc(-c2nn([C@H]3CC[C@@H](N(C)C(=O)/C=C/CN(C)C)CC3)c3ncnc(N)c23)ccc1C [Example 73]
COc1cc(-c2nn(-c3ccc(F)c(N(C)C(=O)/C=C/CN(C)C4CC4)c3)c3ncnc(N)c23)ccc1C [Example 76]
COc1cc(-c2nn(-c3ccc(OCC(C)(C)O)c(N(C)C(=O)/C=C/CN(C)C)c3)c3ncnc(N)c23)ccc1C [Example 77]
C=CC(=O)N1CCC(n2nc(-c3ccc(C)c(OC)c3)c3c(N)ncnc32)CC1 [Example 78]
C=CC(=O)N1CC(n2nc(-c3ccc(C)c(OC)c3)c3c(N)ncnc32)C1 [Example 79]
C=CC(=O)N1CCC(n2nc(-c3ccc(Cl)cc3)c3c(N)ncnc32)CC1 [Example 80]
C=CC(=O)N1CC(n2nc(-c3ccc(Cl)cc3)c3c(N)ncnc32)C1 [Example 81]
COc1cc(-c2nn(-c3ccc(N(C)S(=O)(=O)/C=C/CN(C)C)cc3)c3ncnc(N)c23)ccc1C [Example 82]
C=CC(=O)N1CC[C@@H](n2nc(-c3ccc(C)c(OC)c3)c3c(N)ncnc32)C1 [Example 83]
C=CC(=O)N1CCC[C@@H](n2nc(-c3ccc(C)c(OC)c3)c3c(N)ncnc32)C1 [Example 84]
C=CC(=O)N1CCC[C@@H](n2nc(-c3ccc(Cl)cc3)c3c(N)ncnc32)C1 [Example 85]
C=CC(=O)N1CC[C@@H](n2nc(-c3ccc(F)c(OC)c3)c3c(N)ncnc32)C1 [Example 85b]
C=CC(=O)N1CC[C@@H](n2nc(-c3ccc(F)cc3)c3c(N)ncnc32)C1 [Example 85c]
